According to article PMC9518244, “TiO2 nanotube immobilised 5-lipoxygenase-mediated screening and isolation of anti-inflammatory active compounds from the leaves of lonicera japonica thunb” (Journal of Enzyme Inhibition and Medicinal Chemistry, 2022):
Like-named read-outs stand apart in the source and are kept apart here.

Assays:
RAW264.7 cells [1] = experiment: NO production in LPS-stimulated RAW264.7 cells (NO kit); assay type: cell-based, mouse; details: for LPS-induced NO release in RAW264.7 cells (in words): compared with the model group
5-LOX [2] = target: T1, 5-LOX (Glycine max, UniProt P08170); experiment: 5-LOX immobilised on TiO2 nanotubes microreactor screening (HPLC peak area ratio); assay type: binding; details: analytes of LLJT extract eluted from immobilised 5-LOX, HPLC-MS
T1 sequence (P08170 whole entry): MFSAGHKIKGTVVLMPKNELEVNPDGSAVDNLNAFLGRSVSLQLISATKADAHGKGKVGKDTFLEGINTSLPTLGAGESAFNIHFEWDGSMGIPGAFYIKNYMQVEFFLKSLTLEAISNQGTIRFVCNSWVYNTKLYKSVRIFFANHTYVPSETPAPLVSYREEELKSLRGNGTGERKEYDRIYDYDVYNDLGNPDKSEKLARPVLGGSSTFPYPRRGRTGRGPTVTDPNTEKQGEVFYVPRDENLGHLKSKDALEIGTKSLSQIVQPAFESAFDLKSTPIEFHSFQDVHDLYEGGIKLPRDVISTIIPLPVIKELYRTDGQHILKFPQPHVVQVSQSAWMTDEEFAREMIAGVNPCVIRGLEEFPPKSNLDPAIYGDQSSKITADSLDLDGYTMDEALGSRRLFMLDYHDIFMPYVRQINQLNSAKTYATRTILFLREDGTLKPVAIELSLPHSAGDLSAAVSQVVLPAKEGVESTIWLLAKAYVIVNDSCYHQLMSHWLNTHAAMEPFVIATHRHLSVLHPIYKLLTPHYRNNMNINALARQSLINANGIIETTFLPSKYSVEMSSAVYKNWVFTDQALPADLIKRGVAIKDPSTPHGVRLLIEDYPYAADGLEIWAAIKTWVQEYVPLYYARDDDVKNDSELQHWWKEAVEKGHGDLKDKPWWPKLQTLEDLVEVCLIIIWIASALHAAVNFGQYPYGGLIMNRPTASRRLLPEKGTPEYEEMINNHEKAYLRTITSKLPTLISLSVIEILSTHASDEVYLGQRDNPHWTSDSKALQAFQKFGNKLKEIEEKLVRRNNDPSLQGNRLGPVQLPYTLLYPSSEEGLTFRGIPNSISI
Experimental: Glutaraldehyde (GA) was used as crosslinking agent to covalently immobilise 5-LOX on the amino terminated TNTs. The NH2-TNTs was added to GA solution and shaken in a incubator at room temperature (25 °C) for 8 h. The resulting product was labelled GA-TNTs. Then GA-TNTs was merged with Tris-HCl solution (0.1 M, pH 7.0) containing a certain amount of 5-LOX, and the immobilisation was performed in a shaker at 4 °C for a certain time. After that, the immobilised 5-LOX was acquired by centrifuge to remove supernatant and comprehensively rinsed with Tris-HCl buffer solution several times to remove the unimmobilised enzyme. The 5-LOX-TNTs composites were suspended in Tris-HCl solution and stored at 4 °C before use.
The crude extract of leaves of Lonicera japonica Thunb. was added to 5% (v/v) methanol-Tris buffer solution, and dissolved by ultrasonic to prepare an incubation solution with a concentration of about 5.66 mg/mL. Then 25 mg of material immobilised with 5-LOX was combined with 1 mL of incubation solution and incubated at 25 °C for 90 min on a shaker. After incubation, the material was washed with 1 mL of buffer solution for six times. Then 1 mL of 90% (v/v) acetonitrile aqueous solution was used for ultrasonic elution for 10 min. After centrifugation, the supernatant was filtered and analysed by HPLC-MS.
The screening processes were the same as above.

RAW264.7 cells [3] = experiment: Cytotoxicity assay (CCK-8) in RAW264.7 cells; assay type: cell-based, mouse; details: for Toxicity on RAW264.7 cells (in words): 20-60 μM, luteolin 1-5 μM
Experimental: (§1) For cytotoxicity assay, RAW264.7 cells were seeded in 96-well plates at an inoculation amount of 3 × 10^4/well, and the medium was changed after culturing for 24 h at 37 °C and 5% […]
(§2) concentration (20 μM, 40 μM and 60 μM) of sample solution prepared with fresh medium was added dropwise to 96-well plate. After incubation for 2 h, LPS with a final concentration of 100 ng/mL was added to each well of the experimental group and the model group , the same volume of PBS was added to the normal group and the negative control group. After stimulation for another 22 h, the medium was removed and replaced with fresh medium. 10 μL of CCK-8 reagent was added at room temperature in the dark, and the absorbance was measured at a wavelength of 450 nm after 1 h. […]

RAW264.7 cells [4] = experiment: Cell morphology observation of RAW264.7 cells; assay type: cell-based, mouse; details: 60 μM, with and without LPS 100 ng/mL, microscope 200x
Experimental: The RAW264.7 mouse macrophage cell line (RAW264.7) was cultured in DMEM (Dulbecco's modified eagle medium) supplemented with 10% (v/v) Fetal bovine serum (FBS), 1×105 U·L-1 penicillin and 100 mg·L-1 streptomycin under an atmosphere of humidified 5% CO2 at 37 °C to the logarithmic phase. The samples were dissolved in DMSO and diluted with medium to the desired concentration. The content of DMSO should not exceed 1‰.
There are blank group (no test sample, no LPS), model group (100 ng/mL LPS), experimental group (60 μM test sample + LPS) and negative control group (60 μM test sample) were tested.
For cell morphology observation , the cells were seeded into 6 -well plates at an inoculation amount of 6 ×10^5/well, cultured at 37 °C and 5% CO2 for 24 h, and then the medium was changed. After 2 h incubation with different groups, LPS stimulation with a final concentration of 100 ng/mL were added into the model group and experimental group .
normal group and the negative control group were added with the same volume of PBS, and then photographed under a microscope (200x) after 22 h.

5-LOX [5] = target: T1, 5-LOX; experiment: Offline enzyme model: 5-LOX inhibition, linoleic acid / FOX reagent, A590; assay type: biochemical; details: concentration 1.0 mmol/L
From the text: Specific steps were as follows:
Information Classification: General
(1 picture or pasted object on this page, not shown here)

5-LOX [6] = tested on: 5-LOX; parameters: method as in earlier work; details: RBL-1 cells; cited from earlier work
[7] = Cytotoxicity assay (CCK-8) in RAW264.7 cells; assay type: cell-based; details: mouse, no LPS, read-out: Cell viability (%)
[8] = Cytotoxicity assay (CCK-8) in RAW264.7 cells; assay type: cell-based, mouse; details: mouse, RAW264.7 cells, read-out: Cell viability (%)
Experimental: as §1, §2

rat foot swelling = experiment: Rat foot swelling model (egg white); assay type: in vivo; details: 5.0 mg/kg intraperitoneal, 10-60 min after egg white
Experimental: the NO kit, and the amount of NO produced in each well was calculated. Each group of experiment was performed in parallel three times.
All the animals were acclimated under standard laboratory conditions and had free access to standard water and food. All procedures were conducted in accordance with the “Guiding Principles in the Care and Use of Animals” (China) and were approved by the Ethics Committee of Biomedical Scientific Research of Henan University.
Thirty two male and female rats were divided into four groups with eight rats in each group.
They were normal saline negative control group, dexamethasone positive control group, n-butanol phase of Lonicera japonica Thunb. leaves (RDY nB) administration group and the […]
The intraperitoneal injection method was used
One hour after injection the corresponding drugs in each group, 0.1 mL of fresh egg white was injected into the right postal paw of each rat. Before and after the injection of egg white at 10, 20, 30, 40, 50, and 60 min, the volume of the right postal paw of rat was measured by a toe volume meter, and the swelling rate was calculated. […]
Statistical analysis was analyzed by one-way ANOVA through SPSS 17.0 software, and all data expressed as mean ± SD. Meanwhile, the significant difference between groups was evaluated by Tukey post-hoc test, P<0.05 and P<0.01 were considered statistically Information Classification: General […]

[9] = 40 μmol/L, LPS 100 ng/mL, vs model group
[10] = 60 μmol/L, LPS 100 ng/mL, vs model group

SMILES	NO content (RAW264.7 cells [1]; 20 μmol/L, LPS 100 ng/mL)	NO content (RAW264.7 cells [1]; 20 μmol/L, no LPS)	NO content (RAW264.7 cells [1]; 40 μmol/L, LPS 100 ng/mL)	Inhibition rate (%) of NO production (RAW264.7 cells [1]; [9])	NO content (RAW264.7 cells [1]; 60 μmol/L, LPS 100 ng/mL)	Inhibition rate (%) of NO production (RAW264.7 cells [1]; [10])	LPS-induced NO release in RAW264.7 cells (in words) (RAW264.7 cells [1]; LPS 100 ng/mL)	Bonding rate (%) (5-LOX [2])	Cell viability (%) (RAW264.7 cells [3]; 20 μmol/L, LPS 100 ng/mL)	Cell viability (%) (RAW264.7 cells [3]; 20 μmol/L, no LPS)	Cell viability (%) (RAW264.7 cells [3]; 40 μmol/L, LPS 100 ng/mL)	Cell viability (%) (RAW264.7 cells [3]; 40 μmol/L, no LPS)	Cell viability (%) (RAW264.7 cells [3]; 60 μmol/L, LPS 100 ng/mL)	Cell viability (%) (RAW264.7 cells [3]; 60 μmol/L, no LPS)	Toxicity on RAW264.7 cells (in words) (RAW264.7 cells [3])	Effect on morphology of RAW264.7 cells (RAW264.7 cells [4])	Inhibitory rate (%) (5-LOX [5])	viability at 24 h, 20 μmol/L ([8]; LPS 100 ng/mL)	viability at 24 h, 20 μmol/L ([8]; no LPS)	viability at 24 h, 40 μmol/L ([8]; LPS 100 ng/mL)	other results
O=C(/C=C/c1ccc(O)c(O)c1)O[C@H]1[C@H](O)C[C@](O)(C(=O)O)C[C@H]1OC(=O)/C=C/c1ccc(O)c(O)c1 [Isochlorogenic acid C, isochlorogenic acid C]	6.6 ± 0.3 µmol/L	5.9 ± 0.4 µmol/L	6.7 ± 0.6 µmol/L	25.6%	7.2 ± 0.6 µmol/L	19.9%	can inhibit LPS-induced NO release in RAW264.7 cells	6.34%	206.6±7.8%	140.0±7.6%	188.8±1.4%	190.4±0.2%	201.4±3.8%	186.6±4.1%	low toxicity on RAW264.7 cells	improve the deformation of the inflammatory cells	40.24%	–	–	–	–
O=c1cc(-c2ccc(O)c(O)c2)oc2cc(O)cc(O)c12 [Luteolin, luteolin]	–	–	–	–	–	–	failed to inhibit	34.85%	–	–	–	–	–	–	–	cause a large number of cell death	–	52.6 ± 3.1%	49.5 ± 3.9%	33.4 ± 12.9%	NO content (RAW264.7 cells [1]; 1 μmol/L, LPS 100 ng/mL): 14.4 ± 0.4 µmol/L; NO content (RAW264.7 cells [1]; 1 μmol/L, no LPS): 11.6 ± 0.6 µmol/L; NO content (RAW264.7 cells [1]; 2 μmol/L, LPS 100 ng/mL): 12.1 ± 0.1 µmol/L; NO content (RAW264.7 cells [1]; 5 μmol/L, LPS 100 ng/mL): 9.4 ± 0.5 µmol/L; inhibition at 1 µM (RAW264.7 cells [1]; Mus musculus, RAW264.7, 1 μmol/L, LPS 100 ng/mL, vs model group, read-out: Inhibition rate (%) of NO production): -51.1%; inhibition at 2 µM (RAW264.7 cells [1]; Mus musculus, RAW264.7, 2 μmol/L, LPS 100 ng/mL, vs model group, read-out: Inhibition rate (%) of NO production): -26.4%; inhibition at 5 µM (RAW264.7 cells [1]; Mus musculus, RAW264.7, 5 μmol/L, LPS 100 ng/mL, vs model group, read-out: Inhibition rate (%) of NO production): 1.8%; IC50 (5-LOX [6]): 0.81 µM; viability at 24 h, 2 μmol/L [7]: 104 ± 8.5%; viability at 24 h, 1 μmol/L ([8]; LPS 100 ng/mL): 195 ± 2.6%; viability at 24 h, 1 μmol/L ([8]; no LPS): 120 ± 7.2%; viability at 24 h, 2 μmol/L ([8]; 2 μmol/L, LPS 100 ng/mL): 199 ± 8.6%; viability at 24 h, 5 μmol/L ([8]; 5 μmol/L, LPS 100 ng/mL): 170 ± 3.5%; viability at 24 h, 40 μmol/L ([8]; no LPS): 22 ± 2.4%; viability at 24 h, 60 μmol/L ([8]; LPS 100 ng/mL): 1.4 ± 0.6%; viability at 24 h, 60 μmol/L ([8]; no LPS): 1.5 ± 0.4%
C[C@@H]1O[C@@H](O[C@H]2[C@H](Oc3cc(O)c4c(=O)cc(-c5ccc(O)c(O)c5)oc4c3)O[C@H](CO)[C@@H](O)[C@@H]2O)[C@H](O)[C@H](O)[C@H]1O [Lonicerin, lonicerin]	6.9 ± 0.3 µmol/L	6.1 ± 0.1 µmol/L	7.4 ± 0.2 µmol/L	–	7.9 ± 2.4 µmol/L	–	could also inhibit LPS-induced NO release	23.42%	–	–	–	–	–	–	low toxicity on RAW264.7 cells	improve the deformation of the inflammatory cells	–	216 ± 4.2%	196.2 ± 1.8%	204 ± 3.5%	inhibition at 20 µM (RAW264.7 cells [1]; Mus musculus, RAW264.7, 20 μmol/L, LPS 100 ng/mL, vs model group, read-out: Inhibition rate (%) of NO production): 23.7%; inhibition at 40 µM (RAW264.7 cells [1]; Mus musculus, RAW264.7, 40 μmol/L, LPS 100 ng/mL, vs model group, read-out: Inhibition rate (%) of NO production): 18.5%; inhibition at 60 µM (RAW264.7 cells [1]; Mus musculus, RAW264.7, 60 μmol/L, LPS 100 ng/mL, vs model group, read-out: Inhibition rate (%) of NO production): 12.4%; viability at 24 h, 40 μmol/L ([8]; no LPS): 180 ± 9.1%; viability at 24 h, 60 μmol/L ([8]; LPS 100 ng/mL): 226 ± 7.8%; viability at 24 h, 60 μmol/L ([8]; no LPS): 179.4 ± 0.8%
C[C@@H]1C[C@H]2[C@@H]3CCC4=CC(=O)C=C[C@]4(C)[C@@]3(F)[C@@H](O)C[C@]2(C)[C@@]1(O)C(=O)CO [Dexamethasone]	–	–	–	–	–	–	–	–	–	–	–	–	–	–	–	–	–	–	–	–	Anti-inflammatory effect, foot swelling rate (rat foot swelling): showed a good anti-inflammatory effect
O=c1cc(-c2ccc(O)c(O)c2)oc2cc(O[C@@H]3O[C@H](CO)[C@@H](O)[C@H](O)[C@H]3O)cc(O)c12 [Luteoloside, luteoloside]	11.5 ± 0.1 µmol/L	15.8 ± 1.5 µmol/L	11.9 ± 0.5 µmol/L	-24.9%	13.6 ± 1.3 µmol/L	-43.0%	failed to inhibit	8.87%	102.6±0.4%	100.2±2.1%	104.2±3.4%	102.1±1.7%	103.2±4.8%	56.8±8.8%	–	no significant effect on cells	27.26%	–	–	–	Inhibition rate (%) of NO production (RAW264.7 cells [1]; 20 μmol/L, LPS 100 ng/mL, vs model group): -20.2%
